According to PMC7489219 (Molecular Brain, 2020):
Structures can show the parent of a compound that is named as a salt.

System: T1, primary mouse cortical neurons
T1 construct: primary cortical neurons, DIV 10
Test: cells
Parameters: Protection from NMDA-induced (30 uM, 10 min) neuronal death; Hoechst nuclear morphology by automated microscopy
Conditions: Cortical neurone, 20 h, read-out: % inhibition, inhibition of NMDA-induced cell death (protection score), 30 min pre-treatment
Experimental: On DIV 10, compounds were applied to the cells reaching an end concentration of 10 μM. Cells were incubated for 30 min at 37 °C, 5% CO2 before adding NMDA (30 μM). Cells were incubated for another 10 min in the incubator, then washed twice with defined minimal medium containing 10 μM of the respective compound and incubated for an additional 20 h before readout. Untreated (no NMDA) and NMDA-only stimulated wells were treated with 0.1% DMSO. […] After 15 min of incubation at room temperature, cells were washed twice with phosphate buffered saline. […] Dead neurons were identified by amorphous or shrunken nuclei using CellProfiler and CellProfiler Analyst software. For all cell death analyses the experimental unit (N) is defined as an independent experiment using an independent neuronal preparation. For each independent experiment, data from 3 replicate wells (i.e., from 36 images), representing an average of 3000 cells was analyzed per condition. The survival rate S was calculated by dividing the number of living cells by the total number of cells. The survival rate was then used to calculate the protection score according to Scompound−Svehicle/Suntreated−Svehicle×100=%protection , where ‘compound’ refers to compound + NMDA treatment, ‘vehicle’ refers to vehicle + NMDA treatment, and ‘untreated’ refers to DMSO control. […] As a proof of principle, we next used our assay to screen two commercially available drug libraries. In these screens, primary cortical cells were incubated with test compounds at 10 μM concentration for 30 min before addition of 30 μM NMDA. After 10 min NMDA treatment, cells were washed with fresh medium and kept in the presence of test compounds for 20 h until assessment of cell viability. […] This library covers structurally diverse drugs from several fields such as oncology, cardiology, immunology, and neurology/psychiatry.

Structure (SMILES)	inhibition at 10 µM [%]
C[C@H]1[C@H](OC(=O)CCC(=O)O)O[C@@H]2O[C@@]3(C)CC[C@H]4[C@H](C)CC[C@@H]1[C@@]24OO3 [Artesunate]	-3.35
C[C@H]1[C@H](C)CC[C@]2(C(=O)O)CC[C@]3(C)C(=CC[C@@H]4[C@@]5(C)C[C@@H](O)[C@H](O)[C@@](C)(CO)[C@@H]5CC[C@]43C)[C@H]12 [Asiatic acid]	-2.44
CC(C)(O)[C@H]1CC[C@@](C)([C@H]2[C@@H](O)C[C@@]3(C)[C@@H]4C[C@H](O[C@@H]5O[C@H](CO)[C@@H](O)[C@H](O)[C@H]5O)[C@H]5C(C)(C)[C@@H](O[C@@H]6OC[C@@H](O)[C@H](O)[C@H]6O)CC[C@@]56C[C@@]46CC[C@]23C)O1 [Astragaloside A]	0.89
COC(=O)N[C@H](C(=O)N[C@@H](Cc1ccccc1)[C@@H](O)CN(Cc1ccc(-c2ccccn2)cc1)NC(=O)[C@@H](NC(=O)OC)C(C)(C)C)C(C)(C)C [Atazanavir sulfate]	2.12
CN1[C@@H]2CC[C@H]1CC(OC(=O)C(CO)c1ccccc1)C2 (stereo partly drawn) [Atropine]	9.73
CN1CCCC(n2nc(Cc3ccc(Cl)cc3)c3ccccc3c2=O)CC1 (stereo not drawn) [Azelastine hydrochloride (Astelin)]	-2.32
C[C@H]1[C@H](NC(=O)/C(=N\OC(C)(C)C(=O)O)c2csc(N)n2)C(=O)N1S(=O)(=O)O [Aztreonam (Azactam, Cayston)]	-1.22
Cn1c(CNc2ccc(C(=N)N)cc2)nc2cc(C(=O)N(CCC(=O)O)c3ccccn3)ccc21 [BIBR 953 (Dabigatran etexilate, Pradaxa)]	-1.4
CCCCCCOC(=O)NC(=N)c1ccc(NCc2nc3cc(C(=O)N(CCC(=O)OCC)c4ccccn4)ccc3n2C)cc1 [BIBR-1048 (Dabigatran)]	0.466
O=c1cc(-c2ccccc2)oc2cc(O)c(O)c(O)c12 [Baicalein]	-2.71
O=C(O)[C@H]1O[C@@H](Oc2cc3oc(-c4ccccc4)cc(=O)c3c(O)c2O)[C@H](O)[C@@H](O)[C@@H]1O [Baicalin]	-3.47
CCOC(=O)[C@H](CCc1ccccc1)N[C@H]1CCc2ccccc2N(CC(=O)O)C1=O [Benazepril hydrochloride]	-11.1
Cn1c(CCCC(=O)O)nc2cc(N(CCCl)CCCl)ccc21 [Bendamustine HCL]	9.61
NC(CO)C(=O)NNCc1ccc(O)c(O)c1O (stereo not drawn) [Benserazide]	6.78
COc1ccc2cc3[n+](cc2c1OC)CCc1cc2c(cc1-3)OCO2 [Berberine Hydrochloride]	-2.08
COc1c(O)cc2c(c1O)[C@@H]1O[C@H](CO)[C@@H](O)[C@H](O)[C@H]1OC2=O [Bergenin (Cuscutin)]	1.66
CCC(=O)OCC(=O)[C@@]1(OC(=O)CC)[C@@H](C)C[C@H]2[C@@H]3CCC4=CC(=O)C=C[C@]4(C)[C@@]3(F)[C@@H](O)C[C@@]21C [Betamethasone dipropionate]	6.47
CCCCC(=O)O[C@]1(C(=O)CO)[C@@H](C)C[C@H]2[C@@H]3CCC4=CC(=O)C=C[C@]4(C)[C@@]3(F)[C@@H](O)C[C@@]21C [Betamethasone valerate (Betnovate)]	6.58
C[C@H]1C[C@H]2[C@@H]3CCC4=CC(=O)C=C[C@]4(C)[C@H]3C(=O)C[C@]2(C)[C@@]1(O)C(=O)CO [Betapar (Meprednisone)]	11.6
CC(C[N+](C)(C)C)OC(N)=O (stereo not drawn) [Bethanechol chloride]	-1.35
C[C@@H](O)[C@H]1C(=O)N2C(C(=O)[O-])=C(SC3Cn4cnc[n+]4C3)[C@H](C)[C@H]12 (stereo partly drawn) [Biapenem]	3.3
CC(O)(CS(=O)(=O)c1ccc(F)cc1)C(=O)Nc1ccc(C#N)c(C(F)(F)F)c1 (stereo not drawn) [Bicalutamide (Casodex)]	-3.38
CCNC(=O)CCC/C=C\C[C@@H]1[C@@H](/C=C/[C@@H](O)CCc2ccccc2)[C@H](O)C[C@@H]1O [Bimatoprost]	9.97

Structure (SMILES)	inhibition at 10 µM [%]
COc1ccc(-c2coc3cc(O)cc(O)c3c2=O)cc1 [Biochanin A (4-Methylgenistein)]	3
CC(C)NCC(O)COc1ccc(COCCOC(C)C)cc1 (stereo not drawn) [Bisoprolol]	10
Cc1c(N)nc([C@H](CC(N)=O)NC[C@H](N)C(N)=O)nc1C(=O)N[C@H](C(=O)N[C@H](C)[C@@H](O)[C@H](C)C(=O)N[C@H](C(=O)NCCc1nc(-c2nc(C(=O)NCCC[S+](C)C)cs2)cs1)[C@@H](C)O)[C@@H](O[C@@H]1O[C@@H](CO)[C@@H](O)[C@H](O)[C@@H]1O[C@H]1O[C@H](CO)[C@@H](O)[C@H](OC(N)=O)[C@@H]1O)c1cnc[nH]1 [Bleomycin sulfate]	-2.58
CC(C)C[C@H](NC(=O)[C@H](Cc1ccccc1)NC(=O)c1cnccn1)B(O)O [Bortezomib (Velcade)]	-4.79
CCCC1O[C@@H]2C[C@H]3[C@@H]4CCC5=CC(=O)C=C[C@]5(C)[C@H]4[C@@H](O)C[C@]3(C)[C@]2(C(=O)CO)O1 (stereo partly drawn) [Budesonide]	-9.49
CCCCNc1cc(C(=O)O)cc(S(N)(=O)=O)c1Oc1ccccc1 [Bumetanide]	-2.16
CCCCN1CCCCC1C(=O)Nc1c(C)cccc1C (stereo not drawn) [Bupivacaine hydrochloride (Marcain)]	-1.92
CS(=O)(=O)OCCCCOS(C)(=O)=O [Busulfan (Myleran, Busulfex)]	15.7
CCCC[N+]1(C)[C@@H]2CC(OC(=O)[C@H](CO)c3ccccc3)C[C@H]1[C@@H]1O[C@@H]12 (stereo partly drawn) [Butylscopolamine bromide (Scopolamine butylbromide)]	5
O=C(O)/C=C/c1ccc(O)c(O)c1 [Caffeic acid]	-2.37
CC[C@@]1(O)C(=O)OCc2c1cc1n(c2=O)Cc2cc3ccccc3nc2-1 [Camptothecin]	-13.4
CCOc1nc2cccc(C(=O)OC(C)OC(=O)OC3CCCCC3)c2n1Cc1ccc(-c2ccccc2-c2nn[nH]n2)cc1 (stereo not drawn) [Candesartan cilexetil (Atacand)]	7.42
CCCCCOC(=O)Nc1nc(=O)n([C@@H]2O[C@H](C)[C@@H](O)[C@H]2O)cc1F [Capecitabine (Xeloda)]	3.74
COc1cc(CNC(=O)CCCC/C=C/C(C)C)ccc1O [Capsaicin]	-2.28
NC(=O)N1c2ccccc2C=Cc2ccccc21 [Carbamazepine (Carbatrol)]	2.33
C[C@@](Cc1ccc(O)c(O)c1)(NN)C(=O)O [Carbidopa]	-2.32
C=CC1=C(C(=O)O)N2C(=O)[C@@H](NC(=O)/C(=N\O)c3csc(N)n3)[C@H]2SC1 [Cefdinir (Omnicef)]	44.5
CO/N=C(\C(=O)N[C@@H]1C(=O)N2C(C(=O)OCOC(=O)C(C)(C)C)=C(/C=C\c3scnc3C)CS[C@H]12)c1csc(N)n1 [Cefditoren pivoxil]	8.16
Cc1ccc(-c2cc(C(F)(F)F)nn2-c2ccc(S(N)(=O)=O)cc2)cc1 [Celecoxib]	-7.05
O=C(O)COCCN1CCN(C(c2ccccc2)c2ccc(Cl)cc2)CC1 (stereo not drawn) [Cetirizine Dihydrochloride]	-10.5
C[C@H](CCC(=O)O)[C@H]1CC[C@H]2[C@@H]3[C@H](O)C[C@@H]4C[C@H](O)CC[C@]4(C)[C@H]3CC[C@]12C [Chenodeoxycholic acid]	-2.92
O=C(N[C@H](CO)[C@H](O)c1ccc([N+](=O)[O-])cc1)C(Cl)Cl [Chloramphenicol (Chloromycetin)]	0.272
